Results as given in publication PMC2630805, “Anticancer Alkaloid Lamellarins Inhibit Protein Kinases” (Marine Drugs, 2008).
pIC50: −log10 of the molar value. Read-outs that look alike come from different tables or passages of the source.

Tests used:
[1] = tested on: human neuroblastoma SH-SY5Y cells; assay: SH-SY5Y cell survival, MTS reduction assay; assay type: cell-based; settings: MTS assay, dose-response after 24 h and 48 h exposure, cell '− (x)' = no activity, x = highest concentration tested, read-out: IC50 SH-SY5Y cell survival
Method: We next tested the effects of each lamellarin, at an initial 10 μM concentration, on the survival of the neuroblastoma SH-SY5Y cell line after 48 h exposure (Table 2). Cell survival was estimated by the MTS reduction assay.
SH-SY5Y human neuroblastoma cells were grown in DMEM supplemented with 2mM L-glutamine (Invitrogen, Cergy Pontoise, France), plus antibiotics (penicillin-streptomycin) and a 10% volume of fetal calf serum (FCS) (Invitrogen). Cell viability was determined by means of the MTS (3- (4,5-dimethylthiazol-2-yl)-5- (3-carboxymethoxyphenyl)-2- (4-sulfophenyl)-2H -tetrazolium) reduction method as previously described. Cell death was (also) assayed by LDH release. Lactate dehydrogenase is a stable cytosolic enzyme that is released upon cell lysis. SH-SY5Y cells were also subjected to caspase activity assays. These are based on cleavage of a synthetic caspase substrate DEVD (MP Biomedicals, 199423), a subtrate of active caspase 3/6/7. The assay was carried out according to manufacturer’s instructions.

CK1 = CK1 kinase assay (CKS peptide); assay type: biochemical, porcine
Method: CK1 was purified from porcine brain by affinity chromatography on immobilized axin fragment. The mixture of native CK1 isoforms (essentially CK1δ and CK1ɛ) was assayed in three-fold diluted buffer C, using 25 μM CKS peptide, a CK1 selective substrate (RRKHAAIGpSAYSITA, synthesized by Millegen (Labège, France). Assays were performed for 30 min. at 30°C, as described for GSK-3.

GSK-3α/ß = assay: GSK-3α/β kinase assay (GS-1 substrate); assay type: biochemical, porcine; settings: 15 μM ATP; cell '− (x)' = no inhibitory activity detected, x = highest concentration tested
Excerpt: GSK-3 α/β was purified from porcine brain by affinity chromatography on immobilized axin [39].

CDK5/p25 = CDK5/p25 (Homo sapiens, UniProt Q00535); assay: CDK5/p25 kinase assay (histone H1)
CDK5/p25, sequence (Q00535 whole entry): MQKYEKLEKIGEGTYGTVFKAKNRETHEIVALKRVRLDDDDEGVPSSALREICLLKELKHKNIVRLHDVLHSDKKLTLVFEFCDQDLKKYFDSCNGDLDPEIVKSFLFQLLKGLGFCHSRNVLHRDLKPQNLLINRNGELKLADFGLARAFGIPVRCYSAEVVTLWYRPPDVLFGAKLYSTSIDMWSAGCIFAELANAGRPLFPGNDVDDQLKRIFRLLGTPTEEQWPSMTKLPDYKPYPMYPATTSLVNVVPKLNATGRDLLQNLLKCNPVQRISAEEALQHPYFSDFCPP
CDK5/p25, sequence (Q15078 99-307 partner limits assumed): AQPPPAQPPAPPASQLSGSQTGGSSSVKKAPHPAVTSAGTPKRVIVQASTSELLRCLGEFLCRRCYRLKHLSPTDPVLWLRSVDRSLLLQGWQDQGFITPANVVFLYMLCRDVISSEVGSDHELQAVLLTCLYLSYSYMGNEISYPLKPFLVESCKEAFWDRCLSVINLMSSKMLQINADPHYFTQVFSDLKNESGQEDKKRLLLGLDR
Method: (§1) Blank values were subtracted and activities calculated as pmoles of phosphate incorporated during a 30 min. incubation. The activities were expressed in % of the maximal activity, i.e. in the absence of inhibitors. Controls were performed with appropriate dilutions of dimethylsulfoxide. Unless otherwise stated, the P81 phosphocellulose assay was used.
Its activity was assayed with histone H1 in buffer C as described for CDK1/cyclin B.

DYRK1A = DYRK1A (Rattus norvegicus, UniProt Q63470); assay: DYRK1A kinase assay (myelin basic protein)
Method: as §1
DYRK1A was expressed as a GST fusion protein in E. coli (vector kindly provided by Dr. W. Becker, Institute for Pharmacology and Toxicology, Aachen, Germany) and affinity purified on glutathione-agarose. […] ATP in a final volume of 30 μl. After 30 min incubation at 30°C, 25 μl aliquots of supernatant were treated as described above.

CDK1/cyclin B = CDK1/cyclin B kinase assay (histone H1, P81 phosphocellulose); assay type: biochemical, starfish (Marthasterias glacialis); settings: 15 μM ATP; cell '− (x)' = no inhibitory activity detected, x = highest concentration tested
Method: ATP (3,000 Ci/mmol; 1 mCi/ml) in a final volume of 30 μl. […] The wet filters were counted in the presence of 1 ml ACS (Amersham) scintillation fluid.

PIM 1 = PIM 1 (Homo sapiens, UniProt P11309); assay: PIM1 kinase assay (histone H1); assay type: biochemical; settings: 15 μM ATP; cell '− (x)' = no inhibitory activity detected, x = highest concentration tested; read-out: IC50 PIM 1
PIM 1, sequence (P11309 whole entry, species assumed): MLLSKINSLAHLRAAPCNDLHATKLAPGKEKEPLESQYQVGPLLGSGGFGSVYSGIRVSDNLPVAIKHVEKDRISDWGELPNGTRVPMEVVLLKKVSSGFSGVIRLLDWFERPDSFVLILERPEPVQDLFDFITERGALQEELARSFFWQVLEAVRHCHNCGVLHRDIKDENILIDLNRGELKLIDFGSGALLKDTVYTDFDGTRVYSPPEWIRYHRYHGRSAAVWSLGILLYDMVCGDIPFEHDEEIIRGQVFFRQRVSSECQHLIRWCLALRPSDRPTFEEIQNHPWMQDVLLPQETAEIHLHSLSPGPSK

HeLa cells = tested on: HeLa cells; design: method as in PMID 11975488; settings: provided for comparison, ref [18]; cited from earlier work
[2] = 15 μM ATP, cell '− (x)' = no inhibitory activity detected, x = highest concentration tested

SMILES | pIC50 [1] | pIC50 (CK1) | pIC50 (GSK-3α/ß) | pIC50 (CDK5/p25) | pIC50 (DYRK1A) | pIC50 (CDK1/cyclin B) | pIC50 (PIM 1) | pIC50 (HeLa cells) | pIC50 (CK1; [2])
COc1cc(-c2c3c4cc(OC)c(O)cc4oc(=O)c3n3ccc4cc(O)c(OC)cc4c23)ccc1O [Compound 1, lamellarin D] | 7.72 | 4.89 | 6.52 | 6.26 | 6.35 | 6.30 | 7.00 | 7.96 | 
COc1cc(-c2c3c4cc(OC)c(O)cc4oc(=O)c3n3ccc4cc(OC)c(OC)cc4c23)ccc1O [Compound 2, lamellarin α] | < 5.00 |  | 5.85 | < 5.00 | 5.30 | 5.10 | 6.23 |  | 5.10
COc1cc(-c2c3n(c4c(=O)oc5cc(O)c(OC)cc5c24)CCc2cc(O)c(OC)cc2-3)ccc1O [Compound 3, di-H-lamellarin D] | 6.39 |  | 6.05 | 6.96 | 6.30 | 5.73 | 6.70 |  | 5.23
O=c1oc2cc(O)c(O)cc2c2c(-c3ccc(O)c(O)c3)c3c4cc(O)c(O)cc4ccn3c12 [Compound 4, lamellarin H] | 6.35 |  | 5.02 | < 5.00 | < 5.00 | < 5.00 | < 5.00 | < 4.00 | 5.28
O=c1oc2cc(O)c(O)cc2c2c(-c3ccc(O)c(O)c3)c3n(c12)CCc1cc(O)c(O)cc1-3 [Compound 5, di-H-lamellarin H] | 5.59 |  | 6.17 | < 5.00 | < 5.00 | < 5.00 | < 5.00 |  | 5.28
COc1ccc(-c2c3n(c4c(=O)oc5cc(O)c(OC)cc5c24)CCc2cc(O)c(OC)cc2-3)cc1O [Compound 7, lamellarin L] | 6.15 |  | 7.39 | 7.00 | 6.85 | 6.42 | 6.60 |  | < 5.00
COc1cc(-c2c3c4ccc(O)cc4oc(=O)c3n3ccc4cc(O)c(OC)cc4c23)ccc1O [Compound 9, lamellarin 3] | 7.25 |  | 6.24 | 6.22 | 7.22 | 6.28 | 6.82 | 7.40 | 6.39
COc1ccc2oc(=O)c3c(c(-c4ccc(O)c(OC)c4)c4c5cc(OC)c(O)cc5ccn43)c2c1 [Compound 10, lamellarin 4] | 6.10 |  | 7.30 | 6.22 | 7.10 | 5.70 | 7.30 | 6.07 | 5.89
COc1cc2c(cc1O)oc(=O)c1c2c(-c2ccc(OC)c(OC)c2)c2c3cc(OC)c(OC)cc3ccn21 [Compound 11, lamellarin 5] | 5.10 |  | < 5.00 | < 5.00 | < 5.00 | < 5.00 | 5.70 | 5.60 | < 5.00
COc1cc2c(cc1O)oc(=O)c1c2c(-c2ccc(O)cc2)c2c3cc(OC)c(O)cc3ccn21 [Compound 12, lamellarin 6] | 6.96 |  | 6.89 | 7.52 | 7.05 | 7.00 | 6.48 | 7.40 | 6.10
COc1cccc(-c2c3c4cc(OC)c(O)cc4oc(=O)c3n3ccc4cc(O)c(OC)cc4c23)c1 [Compound 13, lamellarin 7] | 6.85 |  | 5.68 | 5.68 | < 5.00 | 5.37 | < 5.00 | 7.15 | < 5.00
COc1cc(-c2c3c4ccccc4oc(=O)c3n3ccc4cc(O)c(OC)cc4c23)ccc1O [Compound 14, lamellarin 8] | 5.58 |  | 5.66 | 6.05 | 6.00 | 5.30 | 6.15 | 5.40 | < 5.00
O=c1oc2ccccc2c2c(-c3ccc(O)c(O)c3)c3c4cc(O)c(O)cc4ccn3c12 [Compound 15, lamellarin 9] | < 5.00 |  | < 5.00 | < 5.00 | < 5.00 | < 5.00 | < 5.00 | 5.96 | < 5.00
COc1ccc(-c2c3c4ccccc4oc(=O)c3n3ccc4cc(OC)c(OC)cc4c23)cc1OC [Compound 16, lamellarin 11] | < 5.00 |  | < 5.00 | < 5.00 | < 5.00 | < 5.00 | < 5.00 | 5.24 | < 5.00
COc1ccc(-c2c3c4cc5c(cc4oc(=O)c3n3ccc4cc(OC)c(OC)cc4c23)OCO5)cc1OC [Compound 17, lamellarin 12] | < 5.00 |  | < 5.00 | < 5.00 | < 5.00 | < 5.00 | < 5.00 | < 4.00 | < 5.00
COc1cc(-c2c3n(c4c(=O)oc5cc(O)c(OC)cc5c24)CCc2c-3cc(OC)c(OC)c2O)ccc1O [Compound 22, lamellarin K] | < 4.52 |  | < 5.00 | < 5.00 | < 5.00 | < 5.00 | 6.22 |  | 5.22
